The values below come from patent US20100298285A1, “Biclycloheteroaryl Compounds as P2x7 Modulators and Uses Thereof” (priority 2006, published 2010).

The first test relates to IL-1β release, THP-1 cells. Briefly: IL-1β release assay in differentiated THP-1 cells stimulated with BzATP (Example 9). In kind it is cell-based. The note with it: Homo sapiens; 0.3 μM compound ("+" symbols); differentiated THP-1 cells, 250 uM BzATP; read-out: IL-1β% Inhib. @ 0.3 or 0.1 μM. As for the experimental part: THP-1 cells (ATCC Cat # 285-IF-100) are plated in 96 well plates at a concentration of 200,000 cells per well and allowed to differentiate in RPMI-1640 media (ATCC Cat # 30-2001) containing 10% FBS, 100 IU/mL penicillin, 100 ug/mL streptomycin, 100 ng/mL LPS and 100 ng/mL IFN-γ for 16 hours. Following differentiation, the cells are treated for an additional 2 hours in RPMI-1640 media containing 100 IU/mL penicillin, 100 ug/mL streptomycin and fresh LPS at 100 ng/mL. The cells are then pretreated for 30 minutes with the compound of interest at the appropriate concentration in RPMI media containing 100 IU/mL penicillin, 100 ug/mL streptomycin. Following the pretreatment 2′,3′-O-(4-benzoylbenzoyl)-adenosine 5′-triphosphate (Sigma Aldrich Cat # B6396) is added to a final concentration of 250 uM and the cells are incubated for an additional 45 minutes. 30 uL of cell supernatant is then collected and IL-1β levels determined via ELISA (R&D systems Cat. # HSLB50) according to manufacturer's recommendations using the Tecan Safire plate reader. Background adjusted IL-1β levels of drug treated and non-treated cells are used to calculate the percent inhibition.
The following compounds have been or can be prepared according to the synthetic methods described above. For the purpose of Table 1 below, activity of each compound, which can be determined using the IL-1β assay method described in Example 9, is expressed as follows: […]
The compounds set forth in Table 1 were tested for activity in a cellular model as described herein. Specifically, cells were pretreated with differing amounts of the compound under test and released IL-1β determined as in Example 9, above. Measurements were made and IC50 values, presented in Table 2, below, were determined by fitting the data to a four parameter logistic equation using GraphPad Prism software (GraphPad Software, Inc). The equation may be expressed by the following formula:
Y=Bottom+(Top−Bottom)/(1+10̂((Log EC50−X)*HillSlope))
Where X is the logarithm of concentration, Y is the response and Y starts at Bottom and goes to Top with a sigmoid shape.
As to `CN(C)c1ccc(C(=O)N2CCc3c(ccc(Cl)c3NC(=O)Cc3ccc(C(F)(F)F)c(F)c3)C2)cc1` [Compound 3096], the inhibition at 0.3 µM was 26 to 50%.

Turning to `O=C(Cc1ccc(C(F)(F)F)c(F)c1)Nc1c(Cl)ccc2c1CCN(C(=O)COCc1ccccc1)C2` [Compound 3097], the inhibition at 0.3 µM lay within 0 to 25%.

With `N#Cc1ccc(C(=O)N2CCc3c(ccc(Cl)c3NC(=O)Cc3ccc(C(F)(F)F)c(F)c3)C2)cc1` [Compound 3098], the inhibition at 0.3 µM lay within 0 to 25%.

Turning to `O=C(Cc1ccc(C(F)(F)F)c(F)c1)Nc1c(Cl)ccc2c1CCN(C(=O)C1CC1c1ccccc1)C2` (centres unmarked) [Compound 3099], the inhibition at 0.3 µM fell in the range of 0 to 25%.

On to `O=C(Cc1ccc(C(F)(F)F)c(F)c1)Nc1c(Cl)ccc2c1CCN(C(=O)c1ccc(Cl)cc1Cl)C2` [Compound 3100], for which the inhibition at 0.3 µM lay in the range of 0 to 25%.

On to `O=C(Cc1ccc(C(F)(F)F)c(F)c1)Nc1c(Cl)ccc2c1CCN(C(=O)C1CCC1)C2` [Compound 3101], for which the inhibition at 0.3 µM fell in the range of 0 to 25%.

Take `O=C(Cc1ccc(C(F)(F)F)c(F)c1)Nc1c(Cl)ccc2c1CCN(C(=O)C1CC1)C2` [Compound 3102]: the inhibition at 0.3 µM lay in the range of 0 to 25%.

Regarding `O=C(Cc1ccc(C(F)(F)F)c(F)c1)Nc1c(Cl)ccc2c1CCN(C(=O)CC1CCCC1)C2` [Compound 3103], the inhibition at 0.3 µM lay in the range of 51 to 75%.

With `O=C(Cc1ccc(C(F)(F)F)c(F)c1)Nc1c(Cl)ccc2c1CCN(C(=O)COc1ccc(Cl)cc1)C2` [Compound 3104], the inhibition at 0.3 µM is 0 to 25%.

As for `O=C(Cc1ccc(C(F)(F)F)c(F)c1)Nc1c(Cl)ccc2c1CCN(C(=O)Cc1ccc(Cl)cc1)C2` [Compound 3105], the inhibition at 0.3 µM lay in the range of 26 to 50%.

For the compound `O=C(Cc1ccc(C(F)(F)F)c(F)c1)Nc1c(Cl)ccc2c1CCN(C(=O)c1ccccc1C(F)(F)F)C2` [Compound 3106], the inhibition at 0.3 µM was in the range of 26 to 50%.

As for `Cc1ccc(F)c(C(=O)N2CCc3c(ccc(Cl)c3NC(=O)Cc3ccc(C(F)(F)F)c(F)c3)C2)c1Cl` [Compound 3107], the inhibition at 0.3 µM lay in the range of 0 to 25%.

Turning to `Cc1nn(-c2ccccc2)nc1C(=O)N1CCc2c(ccc(Cl)c2NC(=O)Cc2ccc(C(F)(F)F)c(F)c2)C1` [Compound 3108], the inhibition at 0.3 µM is 0 to 25%.

Turning to `O=C(Cc1ccc(C(F)(F)F)c(F)c1)Nc1c(Cl)ccc2c1CCN(C(=O)C1COc3ccccc3O1)C2` (centres unmarked) [Compound 3110], the inhibition at 0.3 µM was 0 to 25%.

Consider `Cc1ccccc1C(=O)N1CCc2c(ccc(Cl)c2NC(=O)Cc2ccc(C(F)(F)F)c(F)c2)C1` [Compound 3112], for which the inhibition at 0.3 µM was in the range of 0 to 25%.

With `O=C(Cc1ccc(C(F)(F)F)c(F)c1)Nc1c(Cl)ccc2c1CCN(C(=O)c1cc(F)ccc1F)C2` [Compound 3113], the inhibition at 0.3 µM was in the range of 0 to 25%.

Take `O=C(Cc1ccc(C(F)(F)F)c(F)c1)Nc1c(Cl)ccc2c1CCN(C(=O)c1ccccc1F)C2` [Compound 3114]: the inhibition at 0.3 µM was in the range of 0 to 25%.

On to `O=C(Cc1ccc(C(F)(F)F)c(F)c1)Nc1c(Cl)ccc2c1CCN(C(=O)c1cccc(Cl)c1Cl)C2` [Compound 3115], for which the inhibition at 0.3 µM is 0 to 25%.

Take `Cc1cc(C(=O)N2CCc3c(ccc(Cl)c3NC(=O)Cc3ccc(C(F)(F)F)c(F)c3)C2)no1` [Compound 3116]: the inhibition at 0.3 µM was 0 to 25%.

As for `O=C(Cc1ccc(C(F)(F)F)c(F)c1)Nc1c(Cl)ccc2c1CCN(C(=O)/C=C/c1ccccc1)C2` [Compound 3118], the inhibition at 0.3 µM fell in the range of 26 to 50%.

With `Cc1ccc(C(=O)N2CCc3c(ccc(Cl)c3NC(=O)Cc3ccc(C(F)(F)F)c(F)c3)C2)cc1` [Compound 3119], the inhibition at 0.3 µM lay within 26 to 50%.

With `COc1ccccc1C(=O)N1CCc2c(ccc(Cl)c2NC(=O)Cc2ccc(C(F)(F)F)c(F)c2)C1` [Compound 3120], the inhibition at 0.3 µM fell in the range of 0 to 25%.

Take `O=C(Cc1ccc(C(F)(F)F)c(F)c1)Nc1c(Cl)ccc2c1CCN(C(=O)c1cccc3ccccc13)C2` [Compound 3121]: the inhibition at 0.3 µM lay in the range of 0 to 25%.

Regarding `CC(=O)N1CCC(C(=O)N2CCc3c(ccc(Cl)c3NC(=O)Cc3ccc(C(F)(F)F)c(F)c3)C2)CC1` [Compound 3122], the inhibition at 0.3 µM lay within 0 to 25%.

Regarding `CCCC(=O)N1CCc2c(ccc(Cl)c2NC(=O)Cc2ccc(C(F)(F)F)c(F)c2)C1` [Compound 3123], the inhibition at 0.3 µM lay within 0 to 25%.

On to `CC(C)(C)c1ccc(C(=O)N2CCc3c(ccc(Cl)c3NC(=O)Cc3ccc(C(F)(F)F)c(F)c3)C2)cc1` [Compound 3124], for which the inhibition at 0.3 µM lay within 0 to 25%.

`O=C(Cc1ccc(C(F)(F)F)c(F)c1)Nc1c(Cl)ccc2c1CCN(C(=O)c1ccc3ccccc3n1)C2` [Compound 3125]: the inhibition at 0.3 µM lay in the range of 26 to 50%.

In the case of `O=C(Cc1ccc(C(F)(F)F)c(F)c1)Nc1c(Cl)ccc2c1CCN(C(=O)c1ccncc1)C2` [Compound 3126], the inhibition at 0.3 µM was in the range of 0 to 25%.

Consider `CC(=O)Nc1ccc(C(=O)N2CCc3c(ccc(Cl)c3NC(=O)Cc3ccc(C(F)(F)F)c(F)c3)C2)cc1` [Compound 3128], for which the inhibition at 0.3 µM was in the range of 0 to 25%.

In the case of `COc1ccc(C(=O)N2CCc3c(ccc(Cl)c3NC(=O)Cc3ccc(C(F)(F)F)c(F)c3)C2)cc1OC` [Compound 3129], the inhibition at 0.3 µM is 0 to 25%.

On to `O=C(Cc1ccc(C(F)(F)F)c(F)c1)Nc1c(Cl)ccc2c1CCN(C(=O)CCC1CCCCC1)C2` [Compound 3130], for which the inhibition at 0.3 µM fell in the range of 51 to 75%.

Turning to `O=C(Cc1ccc(C(F)(F)F)c(F)c1)Nc1c(Cl)ccc2c1CCN(C(=O)c1cc(Cl)cc(Cl)c1)C2` [Compound 3131], the inhibition at 0.3 µM is 0 to 25%.

With `O=C(Cc1ccc(C(F)(F)F)c(F)c1)Nc1c(Cl)ccc2c1CCN(C(=O)c1ccc(C(F)(F)F)nc1)C2` [Compound 3132], the inhibition at 0.3 µM fell in the range of 0 to 25%.

Turning to `O=C(Cc1ccc(C(F)(F)F)c(F)c1)Nc1c(Cl)ccc2c1CCN(C(=O)c1ccc(Oc3ccccc3)nc1)C2` [Compound 3133], the inhibition at 0.3 µM is 0 to 25%.

In the case of `O=C(Cc1ccc(C(F)(F)F)c(F)c1)Nc1c(Cl)ccc2c1CCN(C(=O)c1nccs1)C2` [Compound 3134], the inhibition at 0.3 µM fell in the range of 26 to 50%.

As to `CC(Oc1ccccc1)C(=O)N1CCc2c(ccc(Cl)c2NC(=O)Cc2ccc(C(F)(F)F)c(F)c2)C1` (centres unmarked) [Compound 3135], the inhibition at 0.3 µM was in the range of 26 to 50%.

For `CC(=O)N1CCc2c(ccc(Cl)c2NC(=O)Cc2cccc(C(F)(F)F)c2F)C1` [Compound 3136], the inhibition at 0.3 µM was in the range of 0 to 25%.

As to `O=C(Cc1cccc(C(F)(F)F)c1F)Nc1c(Cl)ccc2c1CCN(C(=O)c1ccccc1)C2` [Compound 3137], the inhibition at 0.3 µM is 0 to 25%.

`CCC(=O)N1CCc2c(ccc(Cl)c2NC(=O)Cc2cccc(C(F)(F)F)c2F)C1` [Compound 3138]: the inhibition at 0.3 µM lay within 0 to 25%.

`O=C(Cc1cccc(C(F)(F)F)c1F)Nc1c(Cl)ccc2c1CCN(C(=O)c1ccc(Cl)cc1)C2` [Compound 3139]: the inhibition at 0.3 µM lay within 0 to 25%.

As for `Cc1cccc(C(=O)N2CCc3c(ccc(Cl)c3NC(=O)Cc3cccc(C(F)(F)F)c3F)C2)c1` [Compound 3140], the inhibition at 0.3 µM was 0 to 25%.

Turning to `COc1ccc(C(=O)N2CCc3c(ccc(Cl)c3NC(=O)Cc3cccc(C(F)(F)F)c3F)C2)cc1` [Compound 3141], the inhibition at 0.3 µM fell in the range of 0 to 25%.

Turning to `O=C(Cc1cccc(C(F)(F)F)c1F)Nc1c(Cl)ccc2c1CCN(C(=O)c1ccc(-c3ccccc3)cc1)C2` [Compound 3142], the inhibition at 0.3 µM is 0 to 25%.

As for `O=C(Cc1cccc(C(F)(F)F)c1F)Nc1c(Cl)ccc2c1CCN(C(=O)c1cc(F)c(F)cc1F)C2` [Compound 3143], the inhibition at 0.3 µM lay in the range of 0 to 25%.

With `O=C(Cc1cccc(C(F)(F)F)c1F)Nc1c(Cl)ccc2c1CCN(C(=O)C1CCCC1)C2` [Compound 3144], the inhibition at 0.3 µM was 0 to 25%.

In the case of `COCC(=O)N1CCc2c(ccc(Cl)c2NC(=O)Cc2cccc(C(F)(F)F)c2F)C1` [Compound 3145], the inhibition at 0.3 µM was in the range of 51 to 75%.

`CCCc1ccc(C(=O)N2CCc3c(ccc(Cl)c3NC(=O)Cc3cccc(C(F)(F)F)c3F)C2)cc1` [Compound 3146]: the inhibition at 0.3 µM was 26 to 50%.

Consider `O=C(Cc1cccc(C(F)(F)F)c1F)Nc1c(Cl)ccc2c1CCN(C(=O)C1CCCCC1)C2` [Compound 3147], for which the inhibition at 0.3 µM lay in the range of 0 to 25%.

With `O=C(Cc1cccc(C(F)(F)F)c1F)Nc1c(Cl)ccc2c1CCN(C(=O)c1ccc(Cl)c(Cl)c1)C2` [Compound 3148], the inhibition at 0.3 µM was in the range of 0 to 25%.

Regarding `COc1cc(OC)cc(C(=O)N2CCc3c(ccc(Cl)c3NC(=O)Cc3cccc(C(F)(F)F)c3F)C2)c1` [Compound 3149], the inhibition at 0.3 µM is 26 to 50%.

Consider `CC(C)C(=O)N1CCc2c(ccc(Cl)c2NC(=O)Cc2cccc(C(F)(F)F)c2F)C1` [Compound 3150], for which the inhibition at 0.3 µM was in the range of 0 to 25%.

As for `O=C(Cc1cccc(C(F)(F)F)c1F)Nc1c(Cl)ccc2c1CCN(C(=O)CCc1ccccc1)C2` [Compound 3151], the inhibition at 0.3 µM lay within 26 to 50%.

Still in this test, the particulars now being: Homo sapiens; THP-1 cells, BzATP 250 uM, four parameter logistic fit.
Broadly, the IC50 is the concentration needed to halve the response being measured. Higher therefore signals weaker potency. In the case of `O=C(Cc1ccc(C(F)(F)F)c(F)c1)Nc1c(Cl)ccc2c1CCN(C(=O)CC1CCCC1)C2` [Compound 3103], the midpoint of inhibition, the IC50, lay at 172 nM.
